Tests used:
Assay type in all cases: in vivo
[1] = tested on: Green Peach Aphid (Myzus persicae, Mixed Life Stages); assay: Green peach aphid, method a (leaf dip, pepper plants); settings: foliar, 120 h, read-out: mortality in comparison with untreated controls
Source text: (§1) The active compounds were formulated in 50:50 (vol:vol) acetone:water and 100 ppm Kinetica™ surfactant.
Pepper plants in the 2nd leaf-pair stage (variety ‘California Wonder’) were infested with approximately 40 laboratory-reared aphids by placing infested leaf sections on top of the test plants. The leaf sections were removed after 24 hr. The leaves of the intact plants were dipped into gradient solutions of the test compound and allowed to dry. Test plants were maintained under fluorescent light (24 hour photoperiod) at about 25° C. and 20-40% relative humidity. Aphid mortality on the treated plants, relative to mortality on check plants, was determined after 5 days.

[2] = tested on: Cotton Aphid (aphis gossypii, Mixed Life Stages); assay: Cotton aphid, method a (cotyledon dip); settings: 120 h, read-out: mortality in comparison with untreated controls
Source text: as §1
Cotton plants at the cotyledon stage (one plant per pot) were infested by placing a heavily infested leaf from the main colony on top of each cotyledon. The aphids were allowed to transfer to the host plant overnight, and the leaf used to transfer the aphids was removed. The cotyledons were dipped in the test solution and allowed to dry. After 5 days, mortality counts were made.

[3] = tested on: Vetch Aphid (Megoura viciae); assay: Vetch aphid, bean leaf disks in microtiterplates; settings: foliar, 144 h
Experimental: The active compounds were formulated in 1:3 (vol:vol) DMSO:water with different concentrations of formulated compounds.
Bean leaf disks were placed into microtiterplates filled with 0.8% agar-agar and 2.5 ppm OPUS™. The leaf disks were sprayed with 2.5 μl of the test solution and 5 to 8 adult aphids were placed into the microtiterplates which were then closed and kept at 23±1° C. and 50±5% relative humidity under fluorescent light for 6 days. Mortality was assessed on the basis of vital, reproduced aphids. Aphid mortality and fecundity was then visually assessed.

[4] = tested on: Cowpea Aphid (aphis craccivora); assay: Cowpea aphid, sprayed potted cowpea plants; settings: read-out: mortality in comparison with untreated controls
Experimental: The active compounds were formulated in 50:50 (vol:vol) acetone:water. The test solution was prepared at the day of use.
Potted cowpea plants colonized with 100-150 aphids of various stages were sprayed after the pest population had been recorded. Population reduction was assessed after 24, 72, and 120 hours.

CN1CCn2ncc(C(=O)Nc3cccnc3)c2C1 [Compound 13, N-(pyridine-3-yl)-5-methyl-4,5,6,7-tetrahydropyrazolo-[1,5-a]pyrazine-3-carboxamide]
mortality at 300 ppm [1]: ≥ 75%
mortality at 300 ppm [2]: ≥ 75%
mortality at 2500 µg/mL [3]: ≥ 90%
mortality at 300 ppm [4]: ≥ 75%
